Values after ≈ are worked out from the molar mass of the structure shown. Where two headings read alike, the source gives them in different places. Marks after values point to notes of the source that are not given here.
Key:
[1] = test system: Pseudomonas aeruginosa MDR R22 from China (V1); assay: MIC assay, CAMHB with alginate oligomer, no visible growth; type: cell-based; settings: for MIC: Pseudomonas aeruginosa, read-out: MIC
Text: (§1) The study described in Example 1 was repeated with the following strains of bacteria and antibiotics as detailed in Tables 4, 5 and 6.

[2] = test system: V9 (Egypt) Acinetobacter baumannii; assay: as above; type: cell-based; settings: Table 5, V9 MDR Acin. baum
MDR Pseudomonas strains = assay: MIC assay of Example 1, summary over the MDR Pseudomonas strains; type: cell-based, Pseudomonas aeruginosa
[3] = test system: Pseudomonas aeruginosa ATCC 39324, mucoid type strain (R79); assay: MIC assay, CAMHB with alginate oligomer, no visible growth; type: cell-based; settings: Pseudomonas aeruginosa, read-out: MIC
[4] = test system: Acinetobacter baumannii (MDR ACB, Libya, V4); assay: MIC-assay, Mueller-Hinton broth with G-block alginate, 384-well, OD600
[5] = test system: Klebsiella pneumoniae KP05 506 from India (V3); assay: MIC assay, CAMHB with alginate oligomer, no visible growth; type: cell-based; settings: Klebsiella pneumoniae, Table 1, V3 KP05 506, read-out: MIC
[6] = test system: Burkholderia cepacia (LMG18941, ATCC-BAA-246); assay: MIC-assay, Mueller-Hinton broth with G-block alginate, 384-well, OD600
[7] = test system: Pseudomonas aeruginosa CFA 24-1, clinical mucoid strain (R80); assay: MIC assay, CAMHB with alginate oligomer, no visible growth; type: cell-based; settings: Pseudomonas aeruginosa, read-out: MIC
[8] = test system: Burkholderia cepacia (1322, V23); assay: MIC-assay, Mueller-Hinton broth with G-block alginate, 384-well, OD600
[9] = test system: V12 5725 (Wales) Klebsiella pneumoniae; assay: MIC assay, CAMHB with alginate oligomer, no visible growth; type: cell-based; settings: Table 5, V12 MDR Kleb pneu
[10] = test system: PA01 Pseudomonas aeruginosa ATCC 15692; assay: MIC assay, two-fold antibiotic dilutions in CAMHB with alginate oligomer, no visible growth; type: cell-based; settings: Pseudomonas aeruginosa, read-out: MIC
[11] = test system: V23 1322 Burkholderia cepacia; assay: MIC assay, CAMHB with alginate oligomer, no visible growth; type: cell-based
V5 AIM-1 E. coli = assay: as above; type: cell-based; settings: Escherichia coli, Table 4, V5 MDR E. coli
Text: as §1

[12] = Acinetobacter baumannii, OligoCF-5/20 0G, read-out: MIC
[13] = Table 9, G-block (OligoCF-5/20) 0%
[14] = Table 9, G-block (OligoCF-5/20) 2%
[15] = Table 9, G-block (OligoCF-5/20) 6%
[16] = Table 9, G-block (OligoCF-5/20) 10%
[17] = ATCCBAA246|LMG18941, Table 8, G-block (OligoCF-5/20) 6%
[18] = ATCCBAA246|LMG18941, Table 8, G-block (OligoCF-5/20) 10%
[19] = Table 8, G-block (OligoCF-5/20) 10%
[20] = Klebsiella pneumoniae, OligoCF-5/20 0G, read-out: MIC
[21] = Burkholderia cepacia, Table 5, V23 MDR Burk cep, OligoCF-5/20 0G, read-out: MIC
[22] = Burkholderia cepacia, Table 6, V23, Experiment 1 (18-03-10), OligoCF-5/20 0G, read-out: MIC
[23] = Burkholderia cepacia, Table 6, V23, Experiment 3 (19-03-10), OligoCF-5/20 0G, read-out: MIC
[24] = Table 5, V23 MDR Burk cep, OligoCF-5/20 +10% G
[25] = Table 6, V23, Experiment 1 (18-03-10), OligoCF-5/20 +10% G
[26] = Table 6, V23, Experiment 2 (18-03-10), OligoCF-5/20 +6% G
[27] = Table 6, V23, Experiment 2 (18-03-10), OligoCF-5/20 +10% G
[28] = Table 6, V23, Experiment 3 (19-03-10), OligoCF-5/20 +6% G
[29] = Table 6, V23, Experiment 3 (19-03-10), OligoCF-5/20 +10% G

## CC(C)(O/N=C(\C(=O)N[C@@H]1C(=O)N2C(C(=O)[O-])=C(C[n+]3ccccc3)CS[C@H]12)c1csc(N)n1)C(=O)O [Ceftazidime]
[1]; Table 1, V1 MDR R22 PA, OligoCF-5/20 0G
  MIC: 128 µg/mL (≈ 234 µM)
[1]; Table 1, V1 MDR R22 PA, OligoCF-5/20 +2% G
  MIC: 64 µg/mL (≈ 117 µM)
[1]; Table 1, V1 MDR R22 PA, OligoCF-5/20 +6% G
  MIC: 32 µg/mL (≈ 58.5 µM)
[1]; Table 1, V1 MDR R22 PA, OligoCF-5/20 +10% G
  MIC: 8 µg/mL (≈ 14.6 µM)
[1]; Table 3, MDR R22 PA strain
  change of MIC in combination with azithromycin by alginate oligomer: reduced
[2]; [12]
  MIC: > 512 µg/mL
[2]; OligoCF-5/20 +2% G
  MIC: 512^† μg/ml
[2]; OligoCF-5/20 +6% G
  MIC: 512^† μg/ml
[2]; OligoCF-5/20 +10% G
  MIC: 256^† μg/ml
MDR Pseudomonas strains
  effectiveness when used in combination with the alginate oligomers: more effective
[3]; ATCC39324, Table 1, R79, OligoCF-5/20 0G
  MIC: < 1 µg/mL
[3]; ATCC39324, Table 1, R79, OligoCF-5/20 +2% G
  MIC: < 1 µg/mL
[3]; ATCC39324, Table 1, R79, OligoCF-5/20 +6% G
  MIC: < 1 µg/mL
[3]; ATCC39324, Table 1, R79, OligoCF-5/20 +10% G
  MIC: < 1 µg/mL
[4]; [13]
  MIC: 16 µg/mL (≈ 29.3 µM)
[4]; [14]
  MIC: 8 µg/mL (≈ 14.6 µM)
[4]; [15]
  MIC: 8 µg/mL (≈ 14.6 µM)
[4]; [16]
  MIC: 8 µg/mL (≈ 14.6 µM)
[5]; OligoCF-5/20 0G
  MIC: > 1020 µg/mL
[5]; OligoCF-5/20 +2% G
  MIC: > 1020 µg/mL
[5]; OligoCF-5/20 +6% G
  MIC: > 1020 µg/mL
[5]; OligoCF-5/20 +10% G
  MIC: > 1020 µg/mL
[6]; ATCCBAA246|LMG18941, Table 8, G-block (OligoCF-5/20) 0%
  MIC: > 16 µg/mL
[6]; ATCCBAA246|LMG18941, Table 8, G-block (OligoCF-5/20) 2%
  MIC: 16 µg/mL (≈ 29.3 µM)
[6]; [17]
  MIC: 16 µg/mL (≈ 29.3 µM)
[6]; [18]
  MIC: 16 µg/mL (≈ 29.3 µM)
[7]; Table 1, R80, OligoCF-5/20 0G
  MIC: < 1 µg/mL
[7]; Table 1, R80, OligoCF-5/20 +2% G
  MIC: < 1 µg/mL
[7]; Table 1, R80, OligoCF-5/20 +6% G
  MIC: < 1 µg/mL
[7]; Table 1, R80, OligoCF-5/20 +10% G
  MIC: < 1 µg/mL
[8]; Table 8, G-block (OligoCF-5/20) 0%
  MIC: > 16 µg/mL
[8]; Table 8, G-block (OligoCF-5/20) 2%
  MIC: > 16 µg/mL
[8]; Table 8, G-block (OligoCF-5/20) 6%
  MIC: 16 µg/mL (≈ 29.3 µM)
[8]; [19]
  MIC: 16 µg/mL (≈ 29.3 µM)
[9]; [20]
  MIC: 64 µg/mL (≈ 117 µM)
[9]; OligoCF-5/20 +2% G
  MIC: 64 µg/mL (≈ 117 µM)
[9]; OligoCF-5/20 +6% G
  MIC: 16^† μg/ml
[9]; OligoCF-5/20 +10% G
  MIC: 16^† μg/ml
[10]; ATCC15692, Table 1, PA01, OligoCF-5/20 0G
  MIC: < 1 µg/mL
[10]; ATCC15692, Table 1, PA01, OligoCF-5/20 +2% G
  MIC: < 1 µg/mL
[10]; ATCC15692, Table 1, PA01, OligoCF-5/20 +6% G
  MIC: < 1 µg/mL
[10]; ATCC15692, Table 1, PA01, OligoCF-5/20 +10% G
  MIC: < 1 µg/mL
[11]; [21]
  MIC: 64 µg/mL (≈ 117 µM)
[11]; [22]
  MIC: 128 µg/mL (≈ 234 µM)
[11]; Burkholderia cepacia, Table 6, V23, Experiment 2 (18-03-10), OligoCF-5/20 0G, read-out: MIC
  MIC: 64 µg/mL (≈ 117 µM)
[11]; [23]
  MIC: 64 µg/mL (≈ 117 µM)
[11]; Table 5, V23 MDR Burk cep, OligoCF-5/20 +2% G
  MIC: 32^† μg/ml
[11]; Table 5, V23 MDR Burk cep, OligoCF-5/20 +6% G
  MIC: 8 µg/mL (≈ 14.6 µM)
[11]; [24]
  MIC: <0.5^† μg/ml
[11]; Table 6, V23, Experiment 1 (18-03-10), OligoCF-5/20 +2% G
  MIC: 64^† μg/ml
[11]; Table 6, V23, Experiment 1 (18-03-10), OligoCF-5/20 +6% G
  MIC: 16^† μg/ml
[11]; [25]
  MIC: 8^† μg/ml
[11]; Table 6, V23, Experiment 2 (18-03-10), OligoCF-5/20 +2% G
  MIC: 64 µg/mL (≈ 117 µM)
[11]; [26]
  MIC: 32^† μg/ml
[11]; [27]
  MIC: 32^† μg/ml
[11]; Table 6, V23, Experiment 3 (19-03-10), OligoCF-5/20 +2% G
  MIC: 32^† μg/ml
[11]; [28]
  MIC: 16^† μg/ml
[11]; [29]
  MIC: 4^† μg/ml

## CC[C@H]1OC(=O)[C@H](C)[C@@H](O[C@H]2C[C@@](C)(OC)[C@@H](O)[C@H](C)O2)[C@H](C)[C@@H](O[C@@H]2O[C@H](C)C[C@H](N(C)C)[C@H]2O)[C@](C)(O)C[C@@H](C)C(=O)[C@H](C)[C@@H](O)[C@]1(C)O [Erythromycin]
V5 AIM-1 E. coli; OligoCF-5/20 0G
  MIC: 4 µg/mL (≈ 5.45 µM)
V5 AIM-1 E. coli; OligoCF-5/20 +2% G
  MIC: 4 µg/mL (≈ 5.45 µM)
V5 AIM-1 E. coli; OligoCF-5/20 +6% G
  MIC: ≤ 1 µg/mL
V5 AIM-1 E. coli; OligoCF-5/20 +10% G
  MIC: ≤ 1 µg/mL
[1]; Table 4, V1 MDR (China), OligoCF-5/20 0G
  MIC: 128 µg/mL (≈ 174 µM)
[1]; Table 4, V1 MDR (China), OligoCF-5/20 +6% G
  MIC: 64 µg/mL (≈ 87.2 µM)
[1]; Table 4, V1 MDR (China), OligoCF-5/20 +10% G
  MIC: 32 µg/mL (≈ 43.6 µM)
[2]; [12]
  MIC: 8 µg/mL (≈ 10.9 µM)
[2]; OligoCF-5/20 +2% G
  MIC: 4^† μg/ml
[2]; OligoCF-5/20 +6% G
  MIC: 1^† μg/ml
[2]; OligoCF-5/20 +10% G
  MIC: <0.5^† μg/ml
[3]; ATCC39324, Table 4, R79 non MDR (muc.), OligoCF-5/20 0G
  MIC: 128 µg/mL (≈ 174 µM)
[3]; ATCC39324, Table 4, R79 non MDR (muc.), OligoCF-5/20 +2% G
  MIC: 64 µg/mL (≈ 87.2 µM)
[3]; ATCC39324, Table 4, R79 non MDR (muc.), OligoCF-5/20 +6% G
  MIC: 32 µg/mL (≈ 43.6 µM)
[3]; ATCC39324, Table 4, R79 non MDR (muc.), OligoCF-5/20 +10% G
  MIC: 2 µg/mL (≈ 2.73 µM)
[4]; [13]
  MIC: 32 µg/mL (≈ 43.6 µM)
[4]; [14]
  MIC: 8 µg/mL (≈ 10.9 µM)
[4]; [15]
  MIC: 4 µg/mL (≈ 5.45 µM)
[4]; [16]
  MIC: 2 µg/mL (≈ 2.73 µM)
[6]; [17]
  MIC: 64 µg/mL (≈ 87.2 µM)
[6]; [18]
  MIC: 64 µg/mL (≈ 87.2 µM)
[7]; Table 4, R80 non MDR (muc.), OligoCF-5/20 0G
  MIC: 512 µg/mL (≈ 698 µM)
[7]; Table 4, R80 non MDR (muc.), OligoCF-5/20 +6% G
  MIC: 128 µg/mL (≈ 174 µM)
[7]; Table 4, R80 non MDR (muc.), OligoCF-5/20 +10% G
  MIC: 32 µg/mL (≈ 43.6 µM)
[8]; [19]
  MIC: 64 µg/mL (≈ 87.2 µM)
[9]; [20]
  MIC: 512 µg/mL (≈ 698 µM)
[9]; OligoCF-5/20 +6% G
  MIC: 512 µg/mL (≈ 698 µM)
[9]; OligoCF-5/20 +10% G
  MIC: 512 µg/mL (≈ 698 µM)
[10]; ATCC15692, Table 4, PA01 non MDR, OligoCF-5/20 0G
  MIC: 128 µg/mL (≈ 174 µM)
[10]; ATCC15692, Table 4, PA01 non MDR, OligoCF-5/20 +2% G
  MIC: 64 µg/mL (≈ 87.2 µM)
[10]; ATCC15692, Table 4, PA01 non MDR, OligoCF-5/20 +6% G
  MIC: 64 µg/mL (≈ 87.2 µM)
[10]; ATCC15692, Table 4, PA01 non MDR, OligoCF-5/20 +10% G
  MIC: 16 µg/mL (≈ 21.8 µM)
[11]; [21]
  MIC: 512 µg/mL (≈ 698 µM)
[11]; [22]
  MIC: 512 µg/mL (≈ 698 µM)
[11]; [23]
  MIC: > 512 µg/mL
[11]; [24]
  MIC: 16^† μg/ml
[11]; [25]
  MIC: 64^† μg/ml
[11]; [26]
  MIC: 64^† μg/ml
[11]; [27]
  MIC: 64^† μg/ml
[11]; [28]
  MIC: 64^† μg/ml
[11]; [29]
  MIC: 16^† μg/ml
